From PMC10861955 (Heliyon, 2024)

Target: T1, Helicobacter pylori inosine 5′-monophosphate dehydrogenase (HpIMPDH) (Helicobacter pylori, UniProt P56088)
T1 sequence (P56088 1-481): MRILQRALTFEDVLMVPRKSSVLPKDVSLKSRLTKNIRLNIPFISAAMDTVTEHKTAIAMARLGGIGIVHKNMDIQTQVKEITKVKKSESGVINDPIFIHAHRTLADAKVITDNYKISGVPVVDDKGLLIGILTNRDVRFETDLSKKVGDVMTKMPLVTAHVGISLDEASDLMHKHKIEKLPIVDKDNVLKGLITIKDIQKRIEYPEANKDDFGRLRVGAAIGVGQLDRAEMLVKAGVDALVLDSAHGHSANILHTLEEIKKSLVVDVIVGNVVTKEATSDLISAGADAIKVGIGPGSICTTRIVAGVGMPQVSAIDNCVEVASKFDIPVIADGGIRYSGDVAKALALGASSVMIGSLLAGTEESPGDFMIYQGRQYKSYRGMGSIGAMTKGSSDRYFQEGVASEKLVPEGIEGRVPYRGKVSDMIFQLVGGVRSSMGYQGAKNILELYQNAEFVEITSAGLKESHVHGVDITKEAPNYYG
Experiment: fluorescence assay of NADH formation, […] HpIMPDH
Type: biochemical

Structure (SMILES) | IC50 [µM]
COc1c2occc2cc2ccc(=O)oc12 [Compound 2, xanthotoxin] | 2.8
COc1cc(OC)c2ccc(=O)oc2c1 [Compound 3, 5,7-di-methoxy-2H-chromen-2-one] | 2.4
